The text below walks through data of publication PMC3692405, “Disease-associated mutations in CNGB3 promote cytotoxicity in photoreceptor-derived cells” (Molecular Vision, 2013).

This assay deals with 661W cells expressing CNG channels with the F525N mutation. Put plainly: LIVE/DEAD Viability/Cytotoxicity Kit staining, cells expressing F525N. It is filed as cell-based, mouse. As to conditions: 0.1 µM CPT-cGMP, 24 h; compared to WT-expressing or untreated F525N-expressing cells. On the procedure:
The viability of 661W cells transfected with WT or mutant CNG channels was also assessed using the LIVE⁄DEAD® Viability⁄Cytotoxicity Kit (Life Technologies) according to the manufacturer’s protocol. Briefly, cells were transfected under the conditions described above and plated into 4-well multi-chamber Lab-Tek glass slides (Nalge Nunc International, Rochester, NY). At the end of cyclic nucleotide treatment, cells were washed with PBS three times and stained with 2 μM calcein AM and 4 μM ethidium homodimer-1 solution at room temperature for 30 min. Fluorescence microscopy was then performed to visualize the live and dead cells. Imaging of cells was performed at the Washington State University Franceschi Microscopy and Imaging Center. Images were obtained using a 10× objective on an Axiovert 200M inverted microscope equipped with a Zeiss LSM 510 confocal laser-scanning system and a krypton-argon laser. Fluorescence was measured using an excitation wavelength of 488 nm, and a 522 DF 32 emission filter for green fluorescence and 635 DF 32 emission filter for red fluorescence.

For `Nc1nc2c(nc(Sc3ccc(Cl)cc3)n2[C@@H]2O[C@@H]3COP(=O)(O)O[C@H]3[C@H]2O)c(=O)[nH]1` [CPT-cGMP, 8-(4-chlorophenylthio) guanosine 3′,5′-cyclic monophosphate], the “damaged/dead and intact/viable cells (calcein AM / ethidium homodimer-1 fluorescence)” value is “more damaged/dead cells (red fluorescence) and less intact/viable cells”.
